Each molecule was assayed against T1, bovine thrombin (Bos taurus, UniProt P00735) (assay: Fibrin clot inhibition assay). Conditions: bovine thrombin 0.2 pmol, 10 minute incubation at 24° C., 1:10 diluted human plasma, turbidity (A405); two-fold delay of fibrin clot present at 15 minutes in the control well.
T1 construct: A bovine thrombin solution (50 ul; 0.2 pmol; Sigma); purchased Sigma
Format: biochemical
Design: unit not given here
Experimental: Human plasma was collected in EDTA (final concentration=0.1%) from a healthy volunteer who had fasted for 12 hours. The plasma was immediately sterilized by passing it through a 0.2 u filter membrane (Gelman) then aliquoted into 1 ml portions and stored at -20° C. In all assays, unsulfated Nα-acetylhirudin 45-65 was included as a control. A bovine thrombin solution (50 ul; 0.2 pmol; Sigma) was added to the wells of a 96 well microtiter plate (Falcon) containing 50 ul of a solution and a 10 minute incubation at 24° C., 100 ul of 1:10 diluted human plasma in 0.12M sodium chloride, 0.01M sodium phosphate, 0.01% sodium azide, 0.1% bovine serum albumin (pH 7.4) was added. The mixture was agitated for 20 seconds and the turbidity (A405) of the solution was measured at 5 minute intervals by an autoreader (Bio-Tek Model EL 309). Reported is the ability of a 5 uM concentration of peptide to delay two-fold the amount of fibrin clot present at 15 minutes in the control well.
With CC[C@H](C)[C@H](NC(=O)[C@@H]1CCCN1C(=O)[C@H](CCC(=O)O)NC(=O)[C@H](Cc1ccc(O)cc1)NC(=O)CCC(=O)O)C(=O)N1CCCC[C@H]1C(=O)N[C@@H](CCC(=O)O)C(=O)N[C@@H](CCC(=O)O)C(=O)N[C@@H](C)C(=O)N[C@@H](CC1CCCCC1)C(=O)N[C@H](CCC(=O)O)C(=O)O [Example 1, Suc-Tyr-Glu-Pro-Ile-Pip-Glu-Glu-Ala-Cha-D-Glu-OH] the “Fibrin Clot Inhibition” value was 0.88.
For CC[C@H](C)[C@H](NC(=O)[C@@H]1CCCCN1C(=O)[C@H](CCC(=O)O)NC(=O)[C@H](Cc1ccc(O)cc1)NC(=O)CCC(=O)O)C(=O)N1CCC[C@H]1C(=O)N[C@@H](CCC(=O)O)C(=O)N[C@@H](CCC(=O)O)C(=O)N[C@@H](C)C(=O)N[C@@H](CC1CCCCC1)C(=O)N[C@H](CCC(=O)O)C(=O)O [Example 2, Suc-Tyr-Glu-Pip-Ile-Pro-Glu-Glu-Ala-Cha-D-Glu-OH], the “Fibrin Clot Inhibition” value was 1.9.
With CC[C@H](C)[C@H](NC(=O)[C@@H]1Cc2ccccc2CN1C(=O)[C@H](CCC(=O)O)NC(=O)[C@H](Cc1ccc(O)cc1)NC(=O)CCC(=O)O)C(=O)N1CCC[C@H]1C(=O)N[C@@H](CCC(=O)O)C(=O)N[C@@H](CCC(=O)O)C(=O)N[C@@H](C)C(=O)N[C@@H](CC1CCCCC1)C(=O)N[C@H](CCC(=O)O)C(=O)O [Example 5, Suc-Tyr-Glu-Tiq-Ile-Pro-Glu-Glu-Ala-Cha-D-Glu-OH] the “Fibrin Clot Inhibition” value was 0.82.
With CC[C@H](C)[C@H](NC(=O)[C@@H]1CCCN1C(=O)[C@H](CCC(=O)O)NC(=O)[C@H](Cc1ccc(O)cc1)NC(=O)CCC(=O)O)C(=O)N1Cc2ccccc2C[C@H]1C(=O)N[C@@H](CCC(=O)O)C(=O)N[C@@H](CCC(=O)O)C(=O)N[C@@H](C)C(=O)N[C@@H](CC1CCCCC1)C(=O)N[C@H](CCC(=O)O)C(=O)O [Example 6, Suc-Tyr-Glu-Pro-Ile-Tiq-Glu-Glu-Ala-Cha-D-Glu-OH] the “Fibrin Clot Inhibition” value was 0.63.

From patent US5232912A, “Anticoagulant peptides” (Merrell Dow Pharmaceuticals Inc., priority 1992, dated 1993)
